Some targets named below: PTP 1B (Homo sapiens, UniProt P18031); TCPTP (Homo sapiens, UniProt P17706); LAR (Homo sapiens, UniProt P10586); CD45 (Homo sapiens, UniProt P08575); VHR (Homo sapiens, UniProt P51452); VH1 (Vaccinia virus, UniProt P07239); VHX (Homo sapiens, UniProt Q9NRW4); HePTP (Homo sapiens, UniProt P35236); LMPTP B (Homo sapiens, UniProt P24666).
Common to all, as to test: biochemical
Test [1] addresses T1, YopH (Yersinia pestis, UniProt O68720). In kind it is biochemical.
The target of test [2] is T1, YopH.
In test [3] the target is T1, YopH. The format is binding.

The source of these data is patent US20090312352A1 (priority 2004, published 2009).

Regarding `O=C1C=CC(=O)C(c2ccc(C(=O)O)cc2)=C1` [4-(3,6-dioxocyclohexa-1,4-dienyl)benzoic acid], the time-dependence of inhibition result on YopH [1] is recorded as “clearly showed a time-dependent inhibition”.

In general, Ki refers to a dissociation constant, usually derived from enzyme kinetics or from competition with a known ligand. A low value points to a stronger hold on the target. Regarding `O=C1NC(=O)/C(=C\c2ccc(-c3cccc([N+](=O)[O-])c3)o2)S1` [Compound 5376305], the Ki at YopH [1] (Ki(u)) was 50 µM.

`N=C1NC(=O)/C(=C\c2ccc(-c3cccc(C(=O)O)c3)o2)S1` [Compound 5377688] showed a Ki at YopH [1] (Ki(c)) of 19.2 µM.

For the compound `O=C1NC(=O)/C(=C\c2ccco2)S1` [Compound 5377816], at YopH [1], the “YopH inhibition (in words)” value is on record as “complete loss of YopH inhibition”.

Regarding `O=C1NC(=O)C(=Cc2ccc(-c3ccc(O)c(C(=O)O)c3)o2)C(=O)N1` [Compound 5377894], the “fold higher Ki value” at YopH [1] is recorded as 12.5 fold. The results for the inhibition constant Ki at YopH [1] (Ki) and at YopH [1] (Ki(c)) were 4.1 µM and 4.13 µM, respectively.

At YopH [1] (Ki(c)), `O=C(O)c1cc(-c2ccc(C=C3C(=O)c4ccccc4C3=O)o2)ccc1O` [Compound 5378650] had an inhibition constant Ki of 3.2 µM.

In the case of `O=C(O)c1cc(-c2ccc(/C=N/n3cnnc3)o2)ccc1O` [Compound 5381181], on YopH [1] (Ki(c)), the Ki was 3.73 µM.

The term IC50 denotes the midpoint of a concentration-inhibition curve. A low value points to greater potency in that assay. The term Kd denotes the concentration at which binding is half-saturated. Take `O=C1NC(=S)NC(=O)C1=Cc1ccc(-c2ccc(C(=O)O)c(O)c2)o1` [Compound 5557271, 4-(5-((tetrahydro-4,6-dioxo-2-thioxopyrimidin-5(6H)-ylidene)methyl)furan-2-yl)-salicylic acid]: the “fold lower inhibitory constant than salicylic acid alone” value on YopH [1] is recorded as 2667 fold. The inhibition constant (Ki) on YopH [1] (Ki) and on YopH [1] (Ki(c)) was 0.33 µM each time. Also, the IC50 against YopH [2] came to 1.4 µM; against PTP 1B it was 9.7 µM; against TCPTP it was 11 µM; at LAR it was 10.9 µM; against CD45, 1.7 µM; on VHR it was 34.7 µM. In addition, the IC50 at VH1 is greater than 250 µM; against VHX, greater than 250 µM; on HePTP it was 32.4 µM; against LMPTP B, greater than 250 µM. Further, the Kd on YopH [3] worked out at 0.33 µM.

As for `O=C1NC(=S)S/C1=C/c1ccc(-c2ccc(C(=O)O)cc2)o1` [Compound 5660015], affinity at YopH [1] (Ki(c)) was put at a Ki of 19.7 µM.

Take `CCN1C(=O)/C(=C\c2ccc(-c3ccc(O)cc3)o2)SC1=S` [Compound 5667408]: the Ki on YopH [1] (Ki(c)) was 38.6 µM; on YopH [1] (Ki(u)), 55.7 µM.

On to `Cc1cc2nc3s/c(=C\c4ccc(-c5ccc(O)c(C(=O)O)c5)o4)c(=O)n3c2cc1C` [Compound 5670901], for which the Ki on YopH [1] (Ki) turned out to be 0.92 µM; on YopH [1] (Ki(c)) it was 0.922 µM; at YopH [1] (Ki(u)), 8.3 µM. The IC50 at YopH [2] stood at 2 µM; on PTP 1B it was 7 µM; against TCPTP, 11 µM; against LAR, 7.7 µM; against CD45, 2.5 µM; at VHR it was 21.2 µM. Also, the IC50 is greater than 250 µM at VH1, greater than 250 µM against VHX, 32.6 µM on HePTP and greater than 250 µM against LMPTP B. The Kd on YopH [3] turned out to be 0.54 µM.

As for `Cc1cc(C)c2nc3s/c(=C\c4ccc(-c5ccc(O)c(C(=O)O)c5)o4)c(=O)n3c2c1` [Compound 5675844], the values for the Ki at YopH [1] (Ki), on YopH [1] (Ki(c)) and on YopH [1] (Ki(u)) were 8.8 µM, 8.82 µM and 10.9 µM, respectively.

With `O=C(Cn1nnc(-c2ccccc2)n1)N/N=C/c1ccc(-c2ccc(O)c(C(=O)O)c2)o1` [Compound 5680029], the Ki worked out at 2.8 µM on YopH [1] (Ki(c)) and 8.9 µM at YopH [1] (Ki(u)). Also, the IC50 on YopH [2] came out at 5.1 µM; on PTP 1B it was 14.3 µM; on TCPTP, 22.7 µM; against LAR, 35.8 µM; against CD45, 15.1 µM; at VHR it was 31.6 µM. For the same compound, the IC50 on VH1 was greater than 250 µM; against VHX it was 34.9 µM; against HePTP, 47.9 µM; at LMPTP B it was greater than 250 µM. Further, at YopH [3], the Kd was 1.04 µM.

Consider `O=C(O)c1cccc(-c2ccc(/C=C3\SC(=S)N(Cc4ccccc4)C3=O)o2)c1` [Compound 5680282], for which the Ki on YopH [1] (Ki(c)) was 17.7 µM; on YopH [1] (Ki(u)) it was 42.8 µM.

In the case of `O=C1NC(=S)S/C1=C\c1ccc(-c2cc([N+](=O)[O-])ccc2O)o1` [Compound 5740279], the inhibition constant (Ki) on YopH [1] (Ki(c)) stood at 17.1 µM; on YopH [1] (Ki(u)) it was 16.5 µM.

Consider `COc1ccc(C2=CC(=O)C=CC2=O)cc1` [Compound 5760449], for which the results for the Ki at YopH [1] (Ki(c)) and on YopH [1] (Ki(u)) were 6.52 ± 1.19 µM and 8.02 ± 0.589 µM, respectively.

`O=C1NC(=O)/C(=C/c2ccc(-c3ccc(O)c(C(=O)O)c3)o2)S1` [Compound 5842540]: the results for the Ki on YopH [1] (Ki(c)) and on YopH [1] (Ki(u)) were 1.13 ± 0.198 µM and 14.1 ± 4.21 µM, respectively. For the same compound, the IC50 against YopH [2] is 3.9 µM; against PTP 1B, 12 µM; on TCPTP it was 30.2 µM; against LAR it was 12.2 µM; against CD45, 5.7 µM; at VHR it was 27.5 µM. The IC50 is greater than 250 µM at VH1, 38.5 µM on VHX, 34.5 µM against HePTP and 215 µM at LMPTP B. Moreover, the dissociation constant Kd on YopH [3] stood at 1.34 µM.

Consider `CSCCC(C(=O)O)N1C(=O)/C(=C\c2ccc(-c3ccc([N+](=O)[O-])cc3)o2)SC1=S` (centres unmarked) [Compound 5850330], for which, on YopH [1] (Ki(c)), the Ki worked out at 9.78 ± 3.32 µM. Also, the IC50 was determined as 11.5 µM at YopH [2]; 38.8 µM at PTP 1B; 197 µM at TCPTP; 20.8 µM at LAR; 38.7 µM on CD45; 49 µM on VHR. For the same compound, the IC50 was greater than 250 µM on VH1, 106 µM on VHX, 95.9 µM at HePTP and greater than 300 µM at LMPTP B.

With `c1ccc(Nc2nc(-c3ccccc3)[n+](-c3ccccc3)s2)cc1` [Compound 5858065], the Ki at YopH [1] (Ki(c)) is 1.87 ± 0.924 µM; at YopH [1] (Ki(u)), 2.57 ± 0.563 µM.

`Cc1ccc(-c2ccc(/C=C3\SC(=S)NC3=O)o2)c([N+](=O)[O-])c1` [Compound 6145062]: at YopH [1] (Ki(u)), affinity was put at a Ki of 94.1 µM. That is a double-digit micromolar value.

In the case of `Cc1cc(C(=O)O)ccc1-c1ccc(/C=C2\SC(=S)NC2=O)o1` [Compound 6338530], the Ki on YopH [1] (Ki(c)) turned out to be 11.4 µM; at YopH [1] (Ki(u)), 84.2 µM.

`O=C1NC(=S)S/C1=C\c1ccc(-c2cc(C(=O)O)ccc2Cl)o1` [Compound 6431206]: the Ki at YopH [1] (Ki(c)) stood at 16.2 µM.

Regarding `COc1ccc(-c2ccc(/C=C3\SC(=S)NC3=O)o2)cc1[N+](=O)[O-]` [Compound 6701338], the Ki at YopH [1] (Ki(c)) turned out to be 6.53 µM; on YopH [1] (Ki(u)), 9.8 µM.

Consider `O=Cc1ccc(-c2ccc(C(=O)O)c(O)c2)o1` [Compound 8164075], for which, on YopH [1], the “YopH inhibition (in words)” value is “still capable of inhibiting YopH in the low micromolar range”. Further, the Ki at YopH [1] (Ki(c)) stood at 7.89 µM; at YopH [1] (Ki(u)) it was 61.2 µM.

Regarding `O=C(O)c1ccccc1O` [salicylic acid, reference compound], the Ki on YopH [1] (Ki) was 882 µM.
